Measurements taken from PMC9516332 (Frontiers in Oncology, 2022).
Read-outs that look alike come from different tables or passages of the source.

Experiments:
AP-1060 (ETV6-NTRK3) = test: Cell viability assay; details: read-out: IC50 in cell proliferation assay
134 cancer cell lines = test: Cell viability assay (ATPlite, 72 hours), IC50 on cancer cell line panel

CC(=O)Nc1cccc(-n2c(=O)n(C3CC3)c(=O)c3c(Nc4ccc(I)cc4F)n(C)c(=O)c(C)c32)c1 [trametinib]
IC50 (AP-1060 (ETV6-NTRK3)): 291 nM | IC50 (134 cancer cell lines; HEC-6, read-out: IC50 in cell proliferation assay, HEC-6 cell line (EGFR p.A289V)): > 31600 nM | IC50 (134 cancer cell lines; Homo sapiens, 769-P, read-out: IC50 in cell proliferation assay, cell line 769-P): 95 nM | IC50 (134 cancer cell lines; Homo sapiens, 786-0, read-out: IC50 in cell proliferation assay, cell line 786-O): 42 nM | IC50 (134 cancer cell lines; Homo sapiens, A 172, read-out: IC50 in cell proliferation assay, cell line A-172): 235 nM | IC50 (134 cancer cell lines; Homo sapiens, A204, read-out: IC50 in cell proliferation assay, cell line A-204): 1230 nM | IC50 (134 cancer cell lines; Homo sapiens, A498, read-out: IC50 in cell proliferation assay, cell line A-498): 13800 nM | IC50 (134 cancer cell lines; Homo sapiens, A549, read-out: IC50 in cell proliferation assay, cell line A-549): 8 nM | IC50 (134 cancer cell lines; Homo sapiens, A704, read-out: IC50 in cell proliferation assay, cell line A-704): > 28200 nM | IC50 (134 cancer cell lines; Homo sapiens, A-375, read-out: IC50 in cell proliferation assay, cell line A-375 (BRAF p.V600E)): 5 nM | IC50 (134 cancer cell lines; Homo sapiens, A-427, read-out: IC50 in cell proliferation assay, cell line A-427): 2.13 nM | IC50 (134 cancer cell lines; Homo sapiens, ACHN, read-out: IC50 in cell proliferation assay, cell line ACHN): 6 nM | IC50 (134 cancer cell lines; Homo sapiens, AN3-CA, read-out: IC50 in cell proliferation assay, cell line AN3-CA (FGFR2 p.N549K)): 50 nM | IC50 (134 cancer cell lines; Homo sapiens, ASPC1, read-out: IC50 in cell proliferation assay, cell line AsPC-1): 14 nM | IC50 (134 cancer cell lines; Homo sapiens, AU565, read-out: IC50 in cell proliferation assay, cell line AU565 (ERBB2 amplification)): > 28200 nM | IC50 (134 cancer cell lines; Homo sapiens, BT-20, read-out: IC50 in cell proliferation assay, cell line BT-20): > 28200 nM | IC50 (134 cancer cell lines; Homo sapiens, BT-474, read-out: IC50 in cell proliferation assay, cell line BT-474 (ERBB2 amplification)): > 31600 nM | IC50 (134 cancer cell lines; Homo sapiens, BT-549, read-out: IC50 in cell proliferation assay, cell line BT-549): 314 nM | IC50 (134 cancer cell lines; Homo sapiens, BXPC-3, read-out: IC50 in cell proliferation assay, cell line BxPC-3): 38 nM | IC50 (134 cancer cell lines; Homo sapiens, C-33-A, read-out: IC50 in cell proliferation assay, cell line C-33 A): 4.42 nM | IC50 (134 cancer cell lines; Homo sapiens, CAL-27, read-out: IC50 in cell proliferation assay, cell line CAL-27): 11 nM | IC50 (134 cancer cell lines; Homo sapiens, CCF-STTG1, read-out: IC50 in cell proliferation assay, cell line CCF-STTG1): > 28200 nM | IC50 (134 cancer cell lines; Homo sapiens, CCRF-CEM, read-out: IC50 in cell proliferation assay, cell line CCRF-CEM): > 28200 nM | IC50 (134 cancer cell lines; Homo sapiens, COLO 205, read-out: IC50 in cell proliferation assay, cell line COLO 205 (BRAF p.V600E)): 4 nM | IC50 (134 cancer cell lines; Homo sapiens, COLO-829, read-out: IC50 in cell proliferation assay, cell line COLO 829 (BRAF p.V600E)): 16 nM | IC50 (134 cancer cell lines; Homo sapiens, DLD-1, read-out: IC50 in cell proliferation assay, cell line DLD-1): 507 nM | IC50 (134 cancer cell lines; Homo sapiens, DU-4475, read-out: IC50 in cell proliferation assay, cell line DU4475 (BRAF p.V600E)): 10 nM | IC50 (134 cancer cell lines; Homo sapiens, Daoy, read-out: IC50 in cell proliferation assay, cell line Daoy): 427 nM | IC50 (134 cancer cell lines; Homo sapiens, DoTc2-4510, read-out: IC50 in cell proliferation assay, cell line DoTc2 4510): 8 nM | IC50 (134 cancer cell lines; Homo sapiens, EOL1, read-out: IC50 in cell proliferation assay, cell line EoL-1 (FIP1L1-PDGFRA)): 8 nM | IC50 (134 cancer cell lines; Homo sapiens, FaDu, read-out: IC50 in cell proliferation assay, cell line FaDu): 19 nM | IC50 (134 cancer cell lines; Homo sapiens, G-361, read-out: IC50 in cell proliferation assay, cell line G-361 (BRAF p.V600E)): 5.46 nM | IC50 (134 cancer cell lines; Homo sapiens, HCC827, read-out: IC50 in cell proliferation assay, cell line HCC827 (EGFR exon19del)): 151 nM | IC50 (134 cancer cell lines; Homo sapiens, HCC4006, read-out: IC50 in cell proliferation assay, cell line HCC4006 (EGFR exon19del)): 808 nM | IC50 (134 cancer cell lines; Homo sapiens, HCT-15, read-out: IC50 in cell proliferation assay, cell line HCT 15): 1740 nM | IC50 (134 cancer cell lines; Homo sapiens, HCT-116, read-out: IC50 in cell proliferation assay, cell line HCT 116): 29 nM | IC50 (134 cancer cell lines; Homo sapiens, HEC-1, read-out: IC50 in cell proliferation assay, HEC-1 cell line): 330 nM | IC50 (134 cancer cell lines; Homo sapiens, HEC-1B, read-out: IC50 in cell proliferation assay, HEC-1-B cell line (EGFR p.A864V)): 6.36 nM | IC50 (134 cancer cell lines; Homo sapiens, HL-60, read-out: IC50 in cell proliferation assay, HL-60 cell line): 1 nM | IC50 (134 cancer cell lines; Homo sapiens, HT, read-out: IC50 in cell proliferation assay, HT cell line): > 28200 nM | IC50 (134 cancer cell lines; Homo sapiens, HT-1080, read-out: IC50 in cell proliferation assay, HT-1080 cell line): 28 nM | IC50 (134 cancer cell lines; Homo sapiens, Hs746T, read-out: IC50 in cell proliferation assay, Hs 746.T cell line (MET exon14skip + amplification)): 82 nM | IC50 (134 cancer cell lines; Homo sapiens, Hs-578T, read-out: IC50 in cell proliferation assay, Hs 578T cell line): 211 nM | IC50 (134 cancer cell lines; Homo sapiens, HuTu80, read-out: IC50 in cell proliferation assay, HuTu 80 cell line): 129 nM | IC50 (134 cancer cell lines; Homo sapiens, J82, read-out: IC50 in cell proliferation assay, J82 cell line): > 28200 nM | IC50 (134 cancer cell lines; Homo sapiens, Jurkat E6.1, read-out: IC50 in cell proliferation assay, Jurkat E6.1 cell line): > 28200 nM | IC50 (134 cancer cell lines; Homo sapiens, K562, read-out: IC50 in cell proliferation assay, K-562 cell line): 22 nM | IC50 (134 cancer cell lines; Homo sapiens, KATO III, read-out: IC50 in cell proliferation assay, KATO III cell line (FGFR2 amplification)): 142 nM | IC50 (134 cancer cell lines; Homo sapiens, KG-1, read-out: IC50 in cell proliferation assay, KG-1 cell line (FGFR1OP2-FGFR1)): 9 nM | IC50 (134 cancer cell lines; Homo sapiens, KLE, read-out: IC50 in cell proliferation assay, KLE cell line): > 28200 nM | IC50 (134 cancer cell lines; Homo sapiens, KMS-11, read-out: IC50 in cell proliferation assay, KMS-11 cell line (FGFR3 p.Y373C)): > 31600 nM | IC50 (134 cancer cell lines; Homo sapiens, KU812, read-out: IC50 in cell proliferation assay, Ku812 cell line): 13 nM | IC50 (134 cancer cell lines; Homo sapiens, Kasumi 1, read-out: IC50 in cell proliferation assay, Kasumi-1 cell line (KIT p.N822K)): 29 nM | IC50 (134 cancer cell lines; Homo sapiens, LC-2-ad, read-out: IC50 in cell proliferation assay, LC-2/ad cell line (CCDC6-RET)): 167 nM | IC50 (134 cancer cell lines; Homo sapiens, LNCaP-Clone-FGC, read-out: IC50 in cell proliferation assay, LNCaP clone FGC cell line): > 28200 nM | IC50 (134 cancer cell lines; Homo sapiens, LS174T, read-out: IC50 in cell proliferation assay, LS174T cell line): 30 nM | IC50 (134 cancer cell lines; Homo sapiens, LS-411N, read-out: IC50 in cell proliferation assay, LS411N cell line (BRAF p.V600E)): 9 nM | IC50 (134 cancer cell lines; Homo sapiens, LoVo, read-out: IC50 in cell proliferation assay, LoVo cell line): 32 nM | IC50 (134 cancer cell lines; Homo sapiens, MCF7, read-out: IC50 in cell proliferation assay, MCF-7 cell line): > 28200 nM | IC50 (134 cancer cell lines; Homo sapiens, MDA-MB-231, read-out: IC50 in cell proliferation assay, MDA-MB-231 cell line): 44 nM | IC50 (134 cancer cell lines; Homo sapiens, MDA-MB-453, read-out: IC50 in cell proliferation assay, MDA-MB-453 cell line): 270 nM | IC50 (134 cancer cell lines; Homo sapiens, MDA-MB-468, read-out: IC50 in cell proliferation assay, MDA-MB-468 cell line): 151 nM | IC50 (134 cancer cell lines; Homo sapiens, MG-63, read-out: IC50 in cell proliferation assay, MG-63 cell line): 257 nM | IC50 (134 cancer cell lines; Homo sapiens, MIA PaCa-2, read-out: IC50 in cell proliferation assay, MIA PaCa-2 cell line): 33 nM | IC50 (134 cancer cell lines; Homo sapiens, MKN-45, read-out: IC50 in cell proliferation assay, MKN45 cell line (MET amplification)): 83 nM | IC50 (134 cancer cell lines; Homo sapiens, MOLM-13, read-out: IC50 in cell proliferation assay, MOLM-13 cell line (FLT3 ITD)): 34 nM
